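Each compound was tested at five concentrations against cells in 96-well plates for 48 hours. GI50 = concentration required for 50% inhibition of growth. TGI marks complete inhibition of growth.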
Legend:
Assay in all cases: DTP human tumour cell line panel, 48 h
OVCAR-4 ovarian = tested on: OVCAR-4 ovarian
NCI-H23 lung = tested on: NCI-H23 lung
MCF7 breast = tested on: MCF7 breast
BT-549 breast = tested on: BT-549 breast
DU-145 prostate = tested on: DU-145 prostate
MALME-3M melanoma = tested on: MALME-3M melanoma
SF-539 CNS = tested on: SF-539 CNS
COLO 205 colon = tested on: COLO 205 colon
SK-MEL-28 melanoma = tested on: SK-MEL-28 melanoma
SK-OV-3 ovarian = tested on: SK-OV-3 ovarian
HOP-92 NSCLC = tested on: HOP-92 NSCLC
HOP-62 NSCLC = tested on: HOP-62 NSCLC
SK-MEL-5 melanoma = tested on: SK-MEL-5 melanoma
MDA-MB-231 breast = tested on: MDA-MB-231 breast
SNB-19 CNS = tested on: SNB-19 CNS
UO-31 renal = tested on: UO-31 renal
OVCAR-8 ovarian = tested on: OVCAR-8 ovarian
HCT-116 colon = tested on: HCT-116 colon
ACHN renal = tested on: ACHN renal
EKVX NSCLC = tested on: EKVX NSCLC
OVCAR-5 ovarian = tested on: OVCAR-5 ovarian
HCT-15 colon = tested on: HCT-15 colon
HS 578T breast = tested on: HS 578T breast
HT29 colon = tested on: HT29 colon
SW-620 colon = tested on: SW-620 colon
A549 NSCLC = tested on: A549 NSCLC
786-0 renal = tested on: 786-0 renal
UACC-62 melanoma = tested on: UACC-62 melanoma
SN12C renal = tested on: SN12C renal
SK-MEL-2 melanoma = tested on: SK-MEL-2 melanoma
UACC-257 melanoma = tested on: UACC-257 melanoma
SR leukemia = tested on: SR leukemia
TK-10 renal = tested on: TK-10 renal
KM12 colon = tested on: KM12 colon
IGROV1 ovarian = tested on: IGROV1 ovarian
M14 melanoma = tested on: M14 melanoma
PC-3 prostate = tested on: PC-3 prostate
MDA-MB-435 = tested on: MDA-MB-435
NCI-H460 lung = tested on: NCI-H460 lung
RXF 393 renal = tested on: RXF 393 renal
SNB-75 CNS = tested on: SNB-75 CNS
SF-295 CNS = tested on: SF-295 CNS
NCI-H226 lung = tested on: NCI-H226 lung
OVCAR-3 ovarian = tested on: OVCAR-3 ovarian
U251 CNS = tested on: U251 CNS
CCRF-CEM leukemia = tested on: CCRF-CEM leukemia
SF-268 CNS = tested on: SF-268 CNS
HCC-2998 colon = tested on: HCC-2998 colon
T-47D breast = tested on: T-47D breast
HL-60(TB) leukemia = tested on: HL-60(TB) leukemia
K-562 leukemia = tested on: K-562 leukemia
RPMI-8226 leukemia = tested on: RPMI-8226 leukemia
MOLT-4 leukemia = tested on: MOLT-4 leukemia
NCI/ADR-RES ovarian = tested on: NCI/ADR-RES ovarian
LOX IMVI melanoma = tested on: LOX IMVI melanoma
A498 renal = tested on: A498 renal
NCI-H522 lung = tested on: NCI-H522 lung

Structure (SMILES): CC1=C[C@H]2O[C@@H]3C[C@H]4OC(=O)/C=C\C=C\[C@H]([C@@H](C)O)OCC/C(C)=C/C(=O)OC[C@@]2(CC1)[C@]4(C)[C@]31CO1
- GI50 (OVCAR-4 ovarian): 7.24 nM
- TGI (OVCAR-4 ovarian): 69.9 nM
- GI50 (NCI-H23 lung): 6.14 nM
- TGI (NCI-H23 lung): 27 nM
- GI50 (MCF7 breast): 2.76 nM
- TGI (MCF7 breast): 18.9 nM
- GI50 (BT-549 breast): 3.87 nM
- TGI (BT-549 breast): 10.8 nM
- GI50 (DU-145 prostate): 4.11 nM
- TGI (DU-145 prostate): 13.9 nM
- GI50 (MALME-3M melanoma): 3.23 nM
- TGI (MALME-3M melanoma): 11.2 nM
- GI50 (SF-539 CNS): 3.65 nM
- TGI (SF-539 CNS): 11.5 nM
- GI50 (COLO 205 colon): 7.33 nM
- TGI (COLO 205 colon): 18.9 nM
- GI50 (SK-MEL-28 melanoma): 5.3 nM
- TGI (SK-MEL-28 melanoma): 22.5 nM
- GI50 (SK-OV-3 ovarian): 6.89 nM
- TGI (SK-OV-3 ovarian): 27.9 nM
- GI50 (HOP-92 NSCLC): 11.6 nM
- TGI (HOP-92 NSCLC): 84.3 nM
- GI50 (HOP-62 NSCLC): 6.42 nM
- TGI (HOP-62 NSCLC): 26.3 nM
- GI50 (SK-MEL-5 melanoma): 2.58 nM
- TGI (SK-MEL-5 melanoma): 7.77 nM
- GI50 (MDA-MB-231 breast): 17.4 nM
- TGI (MDA-MB-231 breast): 77.5 nM
- GI50 (SNB-19 CNS): 4.14 nM
- TGI (SNB-19 CNS): 26.1 nM
- GI50 (UO-31 renal): 5.43 nM
- TGI (UO-31 renal): 33.5 nM
- GI50 (OVCAR-8 ovarian): 9.15 nM
- TGI (OVCAR-8 ovarian): 45.3 nM
- GI50 (HCT-116 colon): 2.37 nM
- TGI (HCT-116 colon): 8.21 nM
- GI50 (ACHN renal): 8.52 nM
- TGI (ACHN renal): 65 nM
- GI50 (EKVX NSCLC): 7.64 nM
- TGI (EKVX NSCLC): 52.4 nM
- GI50 (OVCAR-5 ovarian): 12 nM
- TGI (OVCAR-5 ovarian): 67.9 nM
- GI50 (HCT-15 colon): 3.71 nM
- TGI (HCT-15 colon): 23.6 nM
- GI50 (HS 578T breast): 7.34 nM
- TGI (HS 578T breast): 29.8 nM
- GI50 (HT29 colon): 4.26 nM
- TGI (HT29 colon): 18.8 nM
- GI50 (SW-620 colon): 8.1 nM
- TGI (SW-620 colon): 49.1 nM
- GI50 (A549 NSCLC): 5.26 nM
- TGI (A549 NSCLC): 32.9 nM
- GI50 (786-0 renal): 3.93 nM
- TGI (786-0 renal): 24.9 nM
- GI50 (UACC-62 melanoma): 6.99 nM
- TGI (UACC-62 melanoma): 23.5 nM
- GI50 (SN12C renal): 12 nM
- TGI (SN12C renal): 74.2 nM
- GI50 (SK-MEL-2 melanoma): 12.4 nM
- TGI (SK-MEL-2 melanoma): 42.9 nM
- GI50 (UACC-257 melanoma): 11.2 nM
- TGI (UACC-257 melanoma): 37.9 nM
- GI50 (SR leukemia): 4.05 nM
- TGI (SR leukemia): 11.1 nM
- GI50 (TK-10 renal): 9.23 nM
- TGI (TK-10 renal): 39.5 nM
- GI50 (KM12 colon): 6.25 nM
- TGI (KM12 colon): 132 nM
- GI50 (IGROV1 ovarian): 4.4 nM
- TGI (IGROV1 ovarian): 41.7 nM
- GI50 (M14 melanoma): 2.78 nM
- TGI (M14 melanoma): 6.22 nM
- GI50 (PC-3 prostate): 6.63 nM
- TGI (PC-3 prostate): 116 nM
- GI50 (MDA-MB-435): 7.94 nM
- TGI (MDA-MB-435): 31.9 nM
- GI50 (NCI-H460 lung): 2.46 nM
- TGI (NCI-H460 lung): 6.92 nM
- GI50 (RXF 393 renal): 4.37 nM
- TGI (RXF 393 renal): 18.6 nM
- GI50 (SNB-75 CNS): 8.15 nM
- TGI (SNB-75 CNS): 24.7 nM
- GI50 (SF-295 CNS): 8.91 nM
- TGI (SF-295 CNS): 34.9 nM
- GI50 (NCI-H226 lung): 3.23 nM
- TGI (NCI-H226 lung): 17.7 nM
- GI50 (OVCAR-3 ovarian): 4.4 nM
- TGI (OVCAR-3 ovarian): 34 nM
- GI50 (U251 CNS): 4.43 nM
- TGI (U251 CNS): 26.4 nM
- GI50 (CCRF-CEM leukemia): 4.25 nM
- TGI (CCRF-CEM leukemia): 14300 nM
- GI50 (SF-268 CNS): 10.6 nM
- TGI (SF-268 CNS): 41.1 nM
- GI50 (HCC-2998 colon): 3.47 nM
- TGI (HCC-2998 colon): 12.1 nM
- GI50 (T-47D breast): 8.31 nM
- TGI (T-47D breast): 28.8 nM
- GI50 (HL-60(TB) leukemia): 2.39 nM
- TGI (HL-60(TB) leukemia): 6.84 nM
- GI50 (K-562 leukemia): 2.92 nM
- TGI (K-562 leukemia): 14300 nM
- GI50 (RPMI-8226 leukemia): 3.82 nM
- TGI (RPMI-8226 leukemia): 10.4 nM
- GI50 (MOLT-4 leukemia): 2.38 nM
- TGI (MOLT-4 leukemia): 469 nM
- GI50 (NCI/ADR-RES ovarian): 10.8 nM
- TGI (NCI/ADR-RES ovarian): 98.9 nM
- GI50 (LOX IMVI melanoma): 2.77 nM
- TGI (LOX IMVI melanoma): 10.6 nM
- GI50 (A498 renal): 5.33 nM
- TGI (A498 renal): 14.1 nM
- GI50 (NCI-H522 lung): 2.63 nM
- TGI (NCI-H522 lung): 10.6 nM

From PubChem BioAssay (NCI)
